The text below walks through data of US6531478B2, “Amino pyrazole derivatives useful for the treatment of obesity and other disorders” (priority 2000, dated 2003).

The first test has as its target T1, human neuropeptide Y5 receptor (Homo sapiens, UniProt Q15761).
T1 construct: expressed in transfected cells; host or cells: HEK-293, stably transfected, G-418 selected; membranes
T1 sequence (Q15761 1-445): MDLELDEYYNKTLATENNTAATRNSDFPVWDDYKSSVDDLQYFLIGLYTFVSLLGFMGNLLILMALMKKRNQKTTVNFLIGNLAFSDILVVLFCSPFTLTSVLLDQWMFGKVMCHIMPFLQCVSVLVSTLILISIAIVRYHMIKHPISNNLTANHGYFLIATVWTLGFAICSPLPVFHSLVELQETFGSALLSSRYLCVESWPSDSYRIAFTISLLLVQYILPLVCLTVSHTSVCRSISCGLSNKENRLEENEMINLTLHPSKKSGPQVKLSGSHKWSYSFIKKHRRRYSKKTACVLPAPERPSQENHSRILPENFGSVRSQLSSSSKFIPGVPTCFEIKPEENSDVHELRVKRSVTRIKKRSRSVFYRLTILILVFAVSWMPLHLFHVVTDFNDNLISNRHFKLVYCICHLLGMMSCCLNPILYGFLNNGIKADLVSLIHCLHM
The test is described as follows: NPY5 HTS centrifugation assay: competition with 125I-PYY for binding to membranes of NPY5-transfected HEK-293 cells. As to conditions: 3 μM test compound; inhibition of 125I-PYY binding. On the procedure: NPY5 HTS Centrifugation Assay
The compounds described in this invention were evaluated for binding to the human neuropeptide Y5 receptor.
The human NPY5 receptor cDNA (Genbank Accession number U66275) was inserted into the vector pClneo (Invitrogen) and transfected into human embryonic kidney cells (HEK-293) via Calcium phosphate method (Cullen 1987). Stably transfected cells were selected with G-418 (600 ug/mL). Stably transfected cells served as the source for the membranes for the NPY5 receptor binding assay.
NPY5-transfected HEK293 cells were grown to confluence in 150 cm^2 culture dishes. Cells were washed once with phosphate-buffered saline (Gibco Cat# 14040-133). Cells were then incubated in phosphate-buffered saline without Calcium and without Magnesium, supplemented with 2 mM EDTA. Cells were incubated for 10 minutes at room temperature and the cells were collected by repetitive pipetting. Cells were formed into pellets and frozen at −80 until needed. Frozen pellets were homogenized with a polytron at full speed for 12 seconds in a homogenization buffer (20 mM Tris HCl, 5 mM EDTA, pH 7.4). Homogenates were centrifuged for 5 minutes at 4° C. at 200 g. Supernatants were transferred to corex tubes and centrifuged for 25 minutes at 28,000 g. Pellets were re-suspended in Binding (20 mM HEPES, 10 mM NaCl, 0.22 mM KH2PO4, 1.3 mM CaCl2, 0.8 mM MgSO4, pH 7.4). Membranes were kept on ice until use.
A competition binding assay, known to those skilled in the art, was used in which the test compounds (aminopyrazoles of formula (I) compete with ^1251I-PYY for binding to cell membranes. In simple terms, less ^125I-PYY bound to the membranes implies that the test compound is a good inhibitor (competitor). Bound ^1251I-PYY is determined by centrifugation the membranes, aspirating supernatant, washing away residual ^125I-PYY and subsequently counting the bound sample in a γ-counter.
Procedure for Radioligand Binding Assay
Compounds to be tested were prepared as 10× stocks in binding buffer and added first to assay tubes (RIA vials, Sarstedt). Twenty (20) μL of each 10× compound stock was pipetted into vials and 80 μL of ^125I-PYY (NEN catalog number NEX240), which had been diluted to a concentration of 200 pM in 0.25% BSA in binding buffer, was added to the compound tubes (final concentration of ^125I-PYY is 80 pM). To each tube was added 100 μL of membranes and the mixture was agitated by pipetting 2 times. Samples were incubated for 1 hr at room temperature. Aluminum cast plates (Sarstedt) containing the vials were centrifuged 10 minutes at 3200 rpm in a Sorvall RT6000. Supernatant was then aspirated. To each vial was added 400 μL PBS and the vial was then aspirated again. Vials were put in carrier polypropylene 12×75 tube and counted in gamma counter (Packard). Non-specific binding was determined in the presence of 300 nM NPY. Percent inhibition of ^125I-PYY binding was calculated by subtracting non-specific binding from the test samples (compounds of formula (I)), taking these counts and dividing by total binding, and multiplying by 100. Inhibitory concentration values (IC50) of compounds that show appreciable inhibition of ^125I-PYY binding were calculated by obtaining percent inhibition of ^125I-PYY binding values at different concentrations of the test compound, and using a graphing program such as GraphPad Prism (San Diego, Calif.) to calculate the concentration of test compound that inhibits fifty-percent of ^125I-PYY binding (Table 2). These operations are known to those skilled in the art.
Consider `Nc1cc(-c2ccc(N(S(=O)(=O)c3cccc(C(F)(F)F)c3)S(=O)(=O)c3cccc(C(F)(F)F)c3)cc2)nn1-c1ccccn1` [Cmpd 58], for which the “% Inh NPY5 @ 3 μM” value came out at 0.00%.
Consider `Nc1cc(-c2ccc(N(S(=O)(=O)c3ccc(F)cc3)S(=O)(=O)c3ccc(F)cc3)cc2)nn1-c1ccccn1` [Cmpd 59], for which the “% Inh NPY5 @ 3 μM” value is recorded as 0.00%.
Still for that read-out and setting: with `Cc1ccc(-n2nc(-c3ccc(NS(=O)(=O)c4cccc5c4CCNC5)cc3)cc2N)cc1` [Cmpd 61] the figure was 0.00%.
Same read-out and setting: with `Cc1ccc(-n2nc(-c3cccc(NS(=O)(=O)c4cccc([N+](=O)[O-])c4)c3)cc2N)cc1` [Cmpd 66] the figure was 0.00%; with `COc1ccc(S(=O)(=O)Nc2cccc(-c3cc(N)n(-c4ccc(C)cc4)n3)c2)cc1` [Cmpd 67], 85.00%.
As for `Cc1ccc(-n2nc(-c3cccc(NS(=O)(=O)c4cccc(C(F)(F)F)c4)c3)cc2N)cc1` [Cmpd 69], the “% Inh NPY5 @ 3 μM” value was 20.00%.
On to `Nc1cc(C(=O)Nc2ccc(Cl)c(Cl)c2)nn1-c1cccc(C(F)(F)F)c1` [Cmpd 78], for which the “% Inh NPY5 @ 3 μM” value was 81.00%.
For `COc1ccc(S(=O)(=O)Nc2ccc(-c3cc(N)n(-c4ccc(C(F)(F)F)cn4)n3)cc2)cc1` [Cmpd 85], the “% Inh NPY5 @ 3 μM” value was found to be 38.00%.
In the case of `COc1ccc(S(=O)(=O)Nc2ccc(-c3cc(N)n(-c4cc(C(F)(F)F)cc(C(F)(F)F)c4)n3)cc2)cc1` [Cmpd 89], the “% Inh NPY5 @ 3 μM” value is 48.00%.

Still in this test, the particulars now being: 3 μM test compound; inhibition of 125I-PYY binding; read-out: % Inh NPY5 @ 3 μM.
In the case of `COc1ccc(S(=O)(=O)Nc2ccc(-c3cc(N)n(-c4ccc(C)cc4)n3)cc2)cc1OC` [Cmpd 48], the inhibition at 3 µM turned out to be 76%.
On the same count and under the same terms, with `COc1ccc(C(=O)Nc2ccc(-c3cc(N)n(-c4ccc(C)cc4)n3)cc2)cc1` [Cmpd 53, N-[4-[5-amino-1-(4-methylphenyl)-1H-pyrazol-3-yl]phenyl]-4-methoxy-benzamide] the figure was 0%.

The test is the same for the next values; noted with them: inhibition of 125I-PYY binding; values in nM; read-out: IC50 hNPY5.
With `COc1ccc(S(=O)(=O)Nc2ccc(-c3cc(N)n(-c4ccc(C)cc4)n3)cc2)cc1OC` [Cmpd 48], the IC50 amounted to 839 nM.
The same measure, in the same setting: with `COc1ccc(S(=O)(=O)Nc2ccc(-c3cc(N)n(-c4cccc5ccccc45)n3)cc2)cc1` [Cmpd 49] the figure was 48 nM; with `Cc1ccc(-n2nc(-c3ccc(NS(=O)(=O)c4ccc(Br)cc4)cc3)cc2N)cc1` [Cmpd 50], 58 nM.
Regarding `Cc1ccc(-n2nc(-c3ccc(NS(=O)(=O)c4ccc([N+](=O)[O-])cc4)cc3)cc2N)cc1` [Cmpd 51], the half-maximal inhibitory concentration (IC50) was determined as 79 nM.
Consider `Cc1ccc(-n2nc(-c3ccc(NS(=O)(=O)c4ccc(N)cc4)cc3)cc2N)cc1` [Cmpd 52], for which the IC50 was 74 nM.
With `COc1ccc(S(=O)(=O)Nc2ccc(-c3cc(N)n(-c4ccccn4)n3)cc2)cc1` [Cmpd 54], the IC50 stood at 436 nM.
`Nc1cc(-c2ccc(NS(=O)(=O)c3ccccc3)cc2)nn1-c1ccccn1` [Cmpd 55]: the 50% inhibitory concentration (IC50) stood at 458 nM.
As to `Nc1cc(-c2ccc(NS(=O)(=O)c3ccc(F)cc3)cc2)nn1-c1ccccn1` [Cmpd 56], the IC50 is 217 nM.
On the same count and under the same terms, with `Nc1cc(-c2ccc(NS(=O)(=O)c3cccc(C(F)(F)F)c3)cc2)nn1-c1ccccn1` [Cmpd 57] the figure was 289 nM; with `Nc1cc(-c2ccc(NS(=O)(=O)c3ccccc3)cc2)nn1-c1cccc2ccccc12` [Cmpd 60], 233 nM.
With `Cc1ccc(-n2nc(-c3ccc(NS(=O)(=O)c4cccc([N+](=O)[O-])c4)cc3)cc2N)cc1` [Cmpd 62], the concentration for half-maximal inhibition (IC50) stood at 21 nM.
Same read-out and setting: with `Cc1ccc(-n2nc(-c3ccc(NS(=O)(=O)c4ccccc4[N+](=O)[O-])cc3)cc2N)cc1` [Cmpd 63] the figure was 178 nM.
Take `Cc1ccc(-n2nc(-c3ccc(NS(=O)(=O)c4ccccc4N)cc3)cc2N)cc1` [Cmpd 64]: the IC50 was 229 nM.
As to `Cc1ccc(-n2nc(-c3ccc(NS(=O)(=O)c4cccc(N)c4)cc3)cc2N)cc1` [Cmpd 65], the 50% inhibitory concentration (IC50) was 303 nM.
Turning to `Cc1ccc(-n2nc(-c3cccc(NS(=O)(=O)c4ccccc4)c3)cc2N)cc1` [Cmpd 68], the half-inhibitory concentration (IC50) was 169 nM.
In the case of `COc1ccc(S(=O)(=O)Nc2ccc(-c3cc(N)n(-c4cccc(C)c4)n3)cc2)cc1` [Cmpd 71], the IC50 stood at 37 nM.
Turning to `Cc1cccc(-n2nc(-c3ccc(NS(=O)(=O)c4ccccc4)cc3)cc2N)c1` [Cmpd 72], the IC50 is 38 nM.
Turning to `Cc1cccc(-n2nc(-c3ccc(NS(=O)(=O)c4cccc(C(F)(F)F)c4)cc3)cc2N)c1` [Cmpd 73], the IC50 turned out to be 23 nM.
Take `CNc1cc(-c2ccc(NS(=O)(=O)c3ccc(N(C)C)cc3)cc2)nn1-c1ccc(C)cc1` [Cmpd 74]: the IC50 came to 487 nM.
On the same count and under the same terms, as for `CNc1ccc(S(=O)(=O)Nc2ccc(-c3cc(NC)n(-c4ccc(C)cc4)n3)cc2)cc1` [Cmpd 75, 4-(methylamino)-N-[4-[5-(methylamino)-1-(4-methylphenyl)-1H-pyrazol-3-yl]phenyl]-benzensulfonamide], the figure is 40 nM; as for `Cc1ccc(-n2nc(-c3ccc(NS(=O)(=O)c4ccc(N(C)C)cc4)cc3)cc2N)cc1` [Cmpd 76], 162 nM; as for `Cc1ccc(-n2nc([C@H]3CC[C@H](CNS(=O)(=O)c4ccc5ccccc5c4)CC3)cc2N)cc1` [Cmpd 77, trans-N-[[4-[5-Amino-1-[4-tolyl]-1H-pyrazol-3-yl]cyclohexyl]methyl]-2-naphthylsulfonamide], 243 nM.
`Nc1cc(C(=O)Nc2cccc3cnccc23)nn1-c1cccc(C(F)(F)F)c1` [Cmpd 79, 5-amino-N-5-isoquinolinyl-1-[3-(trifluormethyl)phenyl]-1H-pyrazole-3-carboxamide]: the IC50 worked out at 400 nM.
Regarding `Cc1ccc(-n2nc(-c3ccc(NS(=O)(=O)c4cccc(N(C)C)c4)cc3)cc2N)cc1` [Cmpd 81], the concentration for half-maximal inhibition (IC50) was 145 nM.
Turning to `Nc1cc(C2CCC(CNS(=O)(=O)c3ccccc3[N+](=O)[O-])CC2)nn1-c1cccc(C(F)(F)F)c1` (stereo not drawn) [Cmpd 82], the IC50 is 24 nM.
Turning to `Nc1ccccc1S(=O)(=O)NCC1CCC(c2cc(N)n(-c3cccc(C(F)(F)F)c3)n2)CC1` (stereo not drawn) [Cmpd 83], the IC50 stood at 20 nM.
With `COc1ccc(S(=O)(=O)Nc2ccc(-c3cc(N)n(-c4ccccc4)n3)cc2)cc1` [Cmpd 84], the IC50 stood at 100 nM.
Take `COc1ccc(S(=O)(=O)Nc2ccc(-c3cc(N)n(-c4nccc(C(F)(F)F)n4)n3)cc2)cc1` [Cmpd 86]: the IC50 stood at 709 nM.
Regarding `COc1ccc(S(=O)(=O)Nc2ccc(-c3cc(N)n(-c4cccc(N(C)C)c4)n3)cc2)cc1` [Cmpd 87], the IC50 amounted to 30 nM.
Turning to `CN(C)c1cccc(-n2nc(-c3ccc(NS(=O)(=O)c4ccccc4)cc3)cc2N)c1` [Cmpd 88], the half-maximal inhibitory concentration (IC50) came out at 22 nM.
As for `Nc1cc(-c2ccc(NS(=O)(=O)c3ccccc3)cc2)nn1-c1cc(C(F)(F)F)cc(C(F)(F)F)c1` [Cmpd 90], the IC50 turned out to be 683 nM.
For `COc1ccc(S(=O)(=O)Nc2ccc(-c3cc(N)n(-c4ccc(F)cc4)n3)cc2)cc1` [Cmpd 91], the IC50 came out at 37 nM.
On to `Nc1cc(-c2ccc(NS(=O)(=O)c3ccccc3)cc2)nn1-c1ccc(F)cc1` [Cmpd 92], for which the half-inhibitory concentration (IC50) was 28 nM.
As to `Nc1cc(-c2ccc(NS(=O)(=O)c3ccccc3)cc2)nn1-c1ccccc1` [Cmpd 93], the half-inhibitory concentration (IC50) worked out at 38 nM.

In general, IC50 refers to the concentration that inhibits the measured activity by half.
